This data set can be described thus: Solubility in water. Conditions: water at 75° F. (ca. 24° C.), expressed as Cl2. In kind it is physicochemical.

Turning to `CC1(C)C(=O)N(Br)C(=O)N1Br` [1,3-dibromo-5,5dimethylhydantoin, 1,3-dibromo-5,5-dimethylhydantoin], the solubility in water result was “about 405 ppm”. Under `CC1(C)C(=O)N(Cl)C(=O)N1Br` [N,N′-bromochloro-5,5-dimethylhydantoin] stands “about 890 ppm”.

These data come from US20060073216A1, “Compositions and methods for control of bovine mastitis” (Solution Biosciences, Inc., priority 2002, published 2006).
